Tested on: human insulin-like growth factor-1 (h-IGF-1) production in Hs68 cells
Assay: Enhancement of h-IGF-1 production in Hs68 cells (ELISA)
Type: cell-based
Details: Example 3-(2): 10 to 20 µM
Experimental: (1) Human newborn foreskin […] Hs68 cells (ATCC CRL-1635) were cultured in a D-MEM medium (Bio Whittaker) containing 10% fetal calf serum (FBS; Gibco BRL) in the presence of 5% CO2 at 37°C to saturation in a culture vessel. Then, the cells were suspended in the medium at a concentration of 3 x 10^5/ml using a trypsin-EDTA solution (Bio Whittaker). 200 µl of the suspension was dispensed into each well of a 96-well microtiter plate. When the cells were almost saturated in the culture vessel after culturing for 5 days, the medium was discarded and a medium containing 4HCP at a concentration of 40, 100 or 200 µM was added thereto. The culture supernatant was recovered at intervals of 24 hours for up to 96 hours. The effect of 4HCP on enhancement of human insulin-like growth factor-1 (h-IGF-1) production in Hs68 cells was determined using ELISA-Kit for h-IGF-1 (Diagnostic System Labo).
(2) Hs68 cells were cultured in a D-MEM medium containing 10% fetal calf serum in the presence of 5% CO2 at 37°C to saturation in a culture vessel. Then, the cells were suspended in the medium at a concentration of 3 x 10^5/ml using a trypsin-EDTA solution. 200 µl of the suspension was dispensed into each well of a 96-well microtiter plate. When the cells were almost saturated in the culture vessel after culturing for 5 to 7 days, the medium was discarded and the medium containing cyclopentenone or GM at a concentration of 0, 2.5, 5, 10 or 20 µM was added thereto. The culture supernatant was recovered at 1, 3, 6, 12, 24 or 48 hours. The effect of cyclopentenone or GM on the production (enhancement of expression) of h-IGF-1 in Hs68 cells was determined using ELISA-Kit for h-IGF-1. […] The amount of h-IGF-1 produced 6 hours after the addition was about twice the amount for the control with no addition. […] (3) Hs68 cells were cultured in a D-MEM medium containing 10% fetal calf serum in the presence of 5% CO2 at 37°C to saturation in a culture vessel. Then, the cells were suspended in the medium at a concentration of 3 x 10^5/ml using a trypsin-EDTA solution. 200 µl of the suspension was dispensed into each well of a 96-well microtiter plate. When the cells were almost saturated in the culture vessel after culturing for 5 to 7 days, the medium was discarded and the medium containing 4HCP, a compound of formula (XVIII) (4HCP-GSH) or glutathione (GSH) at a concentration of 0, 25, 50, 100 or 200 µM was added thereto. The culture supernatant was recovered at 1, 3, 6, 12, 24 or 48 hours. The effect on the production (enhancement of expression) of h-IGF-1 in Hs68 cells was determined using ELISA-Kit for h-IGF-1. As a result, when 4HCP was added at a concentration of 25 to 200 µM, h-IGF production in Hs68 cells became maximal at 1 hour and decreased thereafter as the time went by. […] Significant enhancement of h-IGF-1 production was observed when cultured for 10 to 30 minutes. […]

O=C1C=CC(O)C1O (stereo not shown) [cyclopentenone, 4,5-dihydroxy-2-cyclopenten-1-one]
production of h-IGF-1 in Hs68 cells (result in words): h-IGF-1 production was observed from 1-hour to 6 hours after the addition
